Assays:
[1] = system: human adrenal gland section expressing aldosterone-producing adenoma; assay: In vitro autoradiography using human adrenal adenoma; assay type: binding; settings: section of FIG. 17(b)
Method in brief: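 Frozen 7-μm sections of human adrenal bearing aldosterone-producing adenoma were immersed 10 min in radioligand (5-33 kBq/mL) in PBS with 1% fatty-acid-free BSA, washed, then exposed to imaging plates for 16-20 h. Equal-area ROI PSL in adenoma (B2) versus normal cortex (B1) gave B2/B1, corrected for nuclide half-life, added activity and exposure time.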

[2] = Plasma stability evaluation (TLC analysis); assay type: in vitro ADME; settings: 37° C., 60 minutes, TLC analysis
Method in brief: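 Radiolabelled compounds were incubated in heparin-treated pooled normal human plasma at 37° C for 60 minutes. After methanol deproteinization and centrifugation, stability was assessed by TLC under the conditions used for each compound's synthesis.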

[3] = In vivo kinetics experiment (radioactivity distribution); design: species or system Wistar male rat; settings: rat, caudal vein
Method in brief: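 Male Wistar rats (9 weeks) under isoflurane received approximately 1 to 3.7 MBq radiotracer in saline with 1 w/v % ascorbic acid by tail-vein injection. At 10, 30 and 60 min, rats were exsanguinated; blood, organs and remaining body weighed and counted, giving % ID/g and adrenal-to-tissue ratios.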

For [123I]c1ccc2nc(-c3cncc(Cn4ccnn4)c3)n(C3CC3)c2c1 [[^123I] 603, 1-Cyclopropyl-2-[3-(1H-1,2,3-triazol-1-ylmethyl)pyridin-5-yl]-6-[^123I]iodo-1H-benzimidazole], the B2/B1 accumulation ratio [1] was 1.01, the “B2 (PSL value, aldosterone-producing adenoma)” value ([1]; site 71b) was 2043 and the “B1 (PSL value, normal adrenal cortex)” value ([1]; site 72b) was 2027. For the same compound, the “Radiochemical purity after incubation in human plasma” value [2] was 94%, the “Adrenal gland/blood ratio of radioactivity accumulation” value (shortened to “Adrenal gland/blood ratio”) ([3]; 10 min after administration) was 52.24 ± 16.82 and the “Adrenal gland/fat ratio of radioactivity accumulation” value (shortened to “Adrenal gland/fat ratio”) ([3]; 10 min after administration) was 49.21 ± 30.24. The “Adrenal gland/kidney ratio of radioactivity accumulation” value (“Adrenal gland/kidney ratio” for short) ([3]; 10 min after administration) was 3.95 ± 1.50, the “Adrenal gland/liver ratio of radioactivity accumulation” value (shortened to “Adrenal gland/liver ratio”) ([3]; 10 min after administration) was 4.37 ± 1.12 and the “Adrenal gland/muscle ratio of radioactivity accumulation” value (shortened to “Adrenal gland/muscle ratio”) ([3]; 10 min after administration) was 34.85 ± 6.45. For the same compound, the “Adrenal gland/small intestine ratio of radioactivity accumulation” value (“Adrenal gland/small intestine ratio” below) ([3]; 10 min after administration) was 3.44 ± 1.04, the “Radioactivity distribution Adrenal gland” value ([3]; 10 min after administration) was 10.24 ± 4.48 % ID/g and the “Radioactivity distribution Bladder (including urine)” value (shortened to “Radioactivity distribution Bladder”) ([3]; 10 min after administration) was 0.43 ± 0.13 % ID/g. The “Radioactivity distribution Blood” value ([3]; 10 min after administration) was 0.13 ± 0.01 % ID/g, the “Radioactivity distribution Fat” value ([3]; 10 min after administration) was 0.11 ± 0.01 % ID/g and the “Radioactivity distribution Femur” value ([3]; 10 min after administration) was 0.85 ± 0.40 % ID/g. For the same compound, the “Radioactivity distribution Heart” value ([3]; 10 min after administration) was 0.65 ± 0.09 % ID/g, the “Radioactivity distribution Kidney” value ([3]; 10 min after administration) was 2.09 ± 0.09 % ID/g and the “Radioactivity distribution Large intestine” value ([3]; 10 min after administration) was 0.11 ± 0.01 % ID/g. The “Radioactivity distribution Liver” value ([3]; 10 min after administration) was 4.09 ± 0.45 % ID/g, the “Radioactivity distribution Lung” value ([3]; 10 min after administration) was 0.98 ± 0.16 % ID/g and the “Radioactivity distribution Muscle (lower limbs)” value ([3]; 10 min after administration) was 0.18 ± 0.05 % ID/g. The “Radioactivity distribution Remaining whole body” value ([3]; 10 min after administration) was 0.24 ± 0.01 % ID/g, the “Radioactivity distribution Small intestine” value ([3]; 10 min after administration) was 1.29 ± 0.12 % ID/g and the “Radioactivity distribution Spleen” value ([3]; 10 min after administration) was 5.59 ± 1.78 % ID/g. The “Radioactivity distribution Stomach” value ([3]; 10 min after administration) was 0.66 ± 0.34 % ID/g, the “Radioactivity distribution Testis” value ([3]; 10 min after administration) was 0.04 ± 0.01 % ID/g and the “Radioactivity distribution Whole brain” value ([3]; 10 min after administration) was 0.01 ± 0.00 % ID/g. For the same compound, the “Adrenal gland/blood ratio” value ([3]; 30 min after administration) was 199.21 ± 91.92, the “Adrenal gland/fat ratio” value ([3]; 30 min after administration) was 106.15 ± 23.20 and the “Adrenal gland/kidney ratio” value ([3]; 30 min after administration) was 12.16 ± 7.12. The “Adrenal gland/liver ratio” value ([3]; 30 min after administration) was 17.77 ± 9.08, the “Adrenal gland/muscle ratio” value ([3]; 30 min after administration) was 98.15 ± 67.95 and the “Adrenal gland/small intestine ratio” value ([3]; 30 min after administration) was 3.25 ± 1.07. The “Radioactivity distribution Adrenal gland” value ([3]; 30 min after administration) was 15.46 ± 8.64 % ID/g, the “Radioactivity distribution Bladder” value ([3]; 30 min after administration) was 1.13 ± 0.19 % ID/g and the “Radioactivity distribution Blood” value ([3]; 30 min after administration) was 0.10 ± 0.02 % ID/g. For the same compound, the “Radioactivity distribution Fat” value ([3]; 30 min after administration) was 0.12 ± 0.03 % ID/g, the “Radioactivity distribution Femur” value ([3]; 30 min after administration) was 0.83 ± 0.03 % ID/g and the “Radioactivity distribution Heart” value ([3]; 30 min after administration) was 0.64 ± 0.04 % ID/g. For the same compound, the “Radioactivity distribution Kidney” value ([3]; 30 min after administration) was 1.65 ± 0.27 % ID/g, the “Radioactivity distribution Large intestine” value ([3]; 30 min after administration) was 0.14 ± 0.02 % ID/g and the “Radioactivity distribution Liver” value ([3]; 30 min after administration) was 1.89 ± 0.21 % ID/g. The “Radioactivity distribution Lung” value ([3]; 30 min after administration) was 0.97 ± 0.10 % ID/g, the “Radioactivity distribution Muscle (lower limbs)” value ([3]; 30 min after administration) was 0.16 ± 0.02 % ID/g and the “Radioactivity distribution Remaining whole body” value ([3]; 30 min after administration) was 0.27 ± 0.01 % ID/g. For the same compound, the “Radioactivity distribution Small intestine” value ([3]; 30 min after administration) was 3.40 ± 0.80 % ID/g, the “Radioactivity distribution Spleen” value ([3]; 30 min after administration) was 6.71 ± 0.48 % ID/g and the “Radioactivity distribution Stomach” value ([3]; 30 min after administration) was 0.61 ± 0.14 % ID/g. The “Radioactivity distribution Testis” value ([3]; 30 min after administration) was 0.05 ± 0.01 % ID/g, the “Radioactivity distribution Whole brain” value ([3]; 30 min after administration) was 0.01 ± 0.00 % ID/g and the “Adrenal gland/blood ratio” value ([3]; 60 min after administration) was 235.46 ± 58.57. For the same compound, the “Adrenal gland/fat ratio” value ([3]; 60 min after administration) was 108.45 ± 23.85, the “Adrenal gland/kidney ratio” value ([3]; 60 min after administration) was 13.73 ± 3.51 and the “Adrenal gland/liver ratio” value ([3]; 60 min after administration) was 20.07 ± 5.16. The “Adrenal gland/muscle ratio” value ([3]; 60 min after administration) was 124.82 ± 30.33, the “Adrenal gland/small intestine ratio” value ([3]; 60 min after administration) was 2.42 ± 0.71 and the “Radioactivity distribution Adrenal gland” value ([3]; 60 min after administration) was 18.65 ± 1.67 % ID/g. The “Radioactivity distribution Bladder” value ([3]; 60 min after administration) was 3.04 ± 1.32 % ID/g, the “Radioactivity distribution Blood” value ([3]; 60 min after administration) was 0.06 ± 0.01 % ID/g and the “Radioactivity distribution Fat” value ([3]; 60 min after administration) was 0.12 ± 0.04 % ID/g. For the same compound, the “Radioactivity distribution Femur” value ([3]; 60 min after administration) was 0.90 ± 0.10 % ID/g, the “Radioactivity distribution Heart” value ([3]; 60 min after administration) was 0.56 ± 0.01 % ID/g and the “Radioactivity distribution Kidney” value ([3]; 60 min after administration) was 1.23 ± 0.01 % ID/g. The “Radioactivity distribution Large intestine” value ([3]; 60 min after administration) was 0.55 ± 0.52 % ID/g, the “Radioactivity distribution Liver” value ([3]; 60 min after administration) was 0.96 ± 0.10 % ID/g and the “Radioactivity distribution Lung” value ([3]; 60 min after administration) was 0.78 ± 0.03 % ID/g. The “Radioactivity distribution Muscle (lower limbs)” value ([3]; 60 min after administration) was 0.14 ± 0.01 % ID/g, the “Radioactivity distribution Remaining whole body” value ([3]; 60 min after administration) was 0.28 ± 0.04 % ID/g and the “Radioactivity distribution Small intestine” value ([3]; 60 min after administration) was 3.98 ± 1.32 % ID/g. The “Radioactivity distribution Spleen” value ([3]; 60 min after administration) was 5.62 ± 1.11 % ID/g, the “Radioactivity distribution Stomach” value ([3]; 60 min after administration) was 0.89 ± 0.21 % ID/g and the “Radioactivity distribution Testis” value ([3]; 60 min after administration) was 0.05 ± 0.01 % ID/g. For the same compound, the “Radioactivity distribution Whole brain” value ([3]; 60 min after administration) was 0.01 ± 0.00 % ID/g.
